What all share (test): NCI-60 cell line screen, 48 h
The subject of assay [1] is OVCAR-4 ovarian.
For assay [2], the system named is OVCAR-3 ovarian.
Assay [3] relates to UACC-62 melanoma.
The test system of assay [4] is NCI-H522 lung.
For assay [5], the system named is NCI-H23 lung.
Assay [6] deals with ACHN renal.
In assay [7] the test system is SW-620 colon.
Assay [8] has as its system RPMI-8226 leukemia.
Assay [9] deals with HOP-62 NSCLC.
In assay [10] the test system is SK-OV-3 ovarian.

Values joined by “and” are separate entries in the source; they are usually repeats but may differ in a detail not shown here. Equal entries are not always repeated.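 Test compounds were applied to cells in 96-well plates for 48 hours at 5 doses. GI50: concentration for 50% inhibition of growth. TGI denotes the concentration required for complete inhibition of growth.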

`O=C1NCN(c2ccccc2)C12CCN(CCCN1CCN(CCOC(c3ccc(F)cc3)c3ccc(F)cc3)CC1)CC2`: the TGI was 9.58 µM in assay [1]; 3.86 µM in assay [2]; 3.75 µM in assay [3]; 3.69 µM in assay [4]; 9.69 µM in [5]; 3.85 µM in assay [6]. Moreover, the TGI turned out to be 7.87 µM in assay [7], 4.95 µM in [8], 3.81 µM in assay [9] and 4.61 µM in assay [10].

Turning to `O=C1c2ccccc2NC(=S)[C@@H]2CCCN12`, the TGI in [1], in assay [2], in assay [3], in assay [4], in assay [5] and in assay [6] was greater than 100 µM in each case. In addition, the TGI in assay [7], in assay [8], in assay [9] and in assay [10] was greater than 100 µM in each case.

For `COc1c(O)c2c(=O)cc(OC)c3c4c(OC)cc(=O)c5c(O)c(OC)c6c(c(c1C(C(C)O)C6C(C)O)c23)c54` (stereo not drawn), the TGI was determined as 4.96 µM in assay [1]; 2.66 µM in assay [2]; 3.54 µM in assay [3]; 3.82 µM in assay [4]; 3.71 µM in assay [5]; 2.93 µM in [6]. Moreover, the TGI in assay [7] stood at 4.33 µM; in [8], 4.8 µM; in assay [9] it was 2.02 µM; in assay [10], 8.64 µM.

In the case of `O=c1[nH]c(=O)n(C2CC(O)C(CO)O2)cc1OCc1ccccc1` (stereo not drawn), the TGI in assay [1], in assay [2], in assay [3], in [4], in assay [5] and in assay [6] was greater than 100 µM each time. The TGI in [8], in [9] and in [10] was greater than 100 µM each time.

On to `C=C(CN(C)C)C(=O)c1ccccc1[N+](=O)[O-]`, for which the TGI in assay [1] is 41.1 µM; in [2] it was 37 µM and 40.7 µM; in assay [3], 32.9 µM and 31.1 µM; in assay [4] it was 7.74 µM; in [5], 32.7 µM and 66.1 µM; in assay [6] it was 29.5 µM and 14.8 µM. For the same molecule, the TGI in assay [7] was 31.3 µM; in [9], > 100 µM and 36.6 µM; in assay [10] it was greater than 86.8 µM. The GI50 was 14.7 µM in assay [2]; 13.1 µM in assay [3]; 20.7 µM in [5]; 3.79 µM in assay [6]; 15.1 µM and 2.55 µM in [8]; 17.7 µM in assay [9].

As to `CCOP(=O)(/C=C\n1ccc(N)nc1=O)OCC`, the TGI in assay [1], in assay [2], in [3], in [4], in assay [5] and in assay [6] was greater than 100 µM in each case. The TGI in assay [7], in assay [8], in [9] and in assay [10] was greater than 100 µM throughout.

Consider `COc1cc(NC(C)=O)ccc1C(=O)NN1C(=O)/C(=C/c2ccco2)N=C1c1ccccc1`, for which the TGI in assay [1], in assay [2], in assay [3], in [4], in assay [5] and in [6] was greater than 50 µM each time. Moreover, the TGI in assay [7] was greater than 50 µM; in [8], 31.8 µM; in assay [9], greater than 50 µM; in assay [10], greater than 50 µM.

Consider `Nc1nn2c(=O)c3ccccc3nc2s1`, for which the TGI in [1] was greater than 100 µM; in assay [2], greater than 100 µM; in assay [3] it was greater than 100 µM; in assay [4], 50.3 µM; in assay [5], greater than 100 µM; in [6] it was greater than 100 µM. The TGI is 38.5 µM in assay [7], greater than 100 µM in assay [8], greater than 100 µM in [9] and greater than 100 µM in assay [10].

As for `C=Cc1ccccc1C1(O)C=CC(OC)(OC)C=C1`, the TGI in assay [1] amounted to 37.2 µM; in [2] it was 7.53 µM; in [3], 17.6 µM; in [4], 23.9 µM; in [5], 16.2 µM; in assay [6], 39 µM. Further, the TGI in assay [7] came out at 11.5 µM; in assay [8], 45.2 µM; in assay [9], 19.5 µM; in assay [10] it was 29.3 µM.

As for `CC(C)(C)c1cc(C(=O)/C=C/c2ccc3c(c2)OCO3)cc(C(C)(C)C)c1O`, the TGI in assay [1] is 78.7 µM; in [2], 23 µM; in [3], greater than 45.5 µM; in assay [4], 66 µM; in assay [5], greater than 86.4 µM; in [6] it was greater than 100 µM. The TGI in [7] was 35.8 µM; in assay [8], 16.9 µM; in [9] it was greater than 100 µM; in assay [10], greater than 100 µM.

For `O=c1cc(-c2ccccc2)oc2c(-c3cc(Cl)cc4c(=O)cc(-c5ccccc5)oc34)cc(Cl)cc12`, the TGI in assay [1] was greater than 100 µM; in assay [2] it was 80.5 µM; in assay [3], 48.4 µM; in assay [4] it was 55.3 µM; in assay [5], greater than 100 µM; in [6], greater than 100 µM. For the same molecule, the TGI in [7] is greater than 100 µM; in assay [8], greater than 100 µM; in assay [9], greater than 100 µM; in assay [10], 85.2 µM.

In the case of `S=c1cc(-c2ccc3c(c2)OCO3)s[nH]1`, the TGI in assay [1] was greater than 100 µM; in [2] it was greater than 100 µM; in [3], greater than 100 µM; in assay [4] it was 54.6 µM; in [5] it was greater than 100 µM; in assay [6], greater than 100 µM. Besides, the TGI in assay [7], in [8], in assay [9] and in assay [10] was greater than 100 µM in each case.

In the case of `CC(=O)c1ccc2c(c1)CC1(C2)Cc2ccccc2C1=O` (stereo not drawn), the TGI in assay [1] is greater than 100 µM; in assay [2], greater than 100 µM; in assay [3], greater than 100 µM; in assay [4] it was 99.6 µM; in [5] it was greater than 100 µM; in assay [6], greater than 100 µM. The TGI in assay [7], in assay [8], in [9] and in assay [10] was greater than 100 µM throughout.

For the molecule `[O-]/[N+](=C\c1ccccc1OC(=S)S)c1ccc(Cl)cc1`, the TGI was 37 µM in assay [1]; greater than 100 µM in assay [2]; greater than 100 µM in assay [3]; 52.8 µM in assay [4]; greater than 100 µM in assay [5]; greater than 100 µM in assay [6]. The TGI in assay [7], in [8], in assay [9] and in assay [10] was greater than 100 µM each time.

Turning to `CN(C)CC1CCC(CN(C)C)C1=O` (stereo not drawn), the TGI in [1] turned out to be 15.8 µM; in assay [2], 7.24 µM; in [3], 27.2 µM; in [4], 0.359 µM; in assay [5] it was 12.9 µM; in [6] it was 11.1 µM. The TGI in [7] was 10.4 µM; in [8] it was 3.33 µM; in [9], greater than 68 µM; in assay [10], 30.6 µM.

On to `CC(NC(=O)N(C)C)NC(=O)N(C)C`, for which the TGI in [1], in [2], in assay [3], in assay [4], in assay [5] and in assay [6] was greater than 10 µM each time. For the same molecule, the TGI in [7], in assay [8], in assay [9] and in [10] was greater than 10 µM each time.

As to `CCCCCCCCCc1nn2c(Cc3ccccc3)nnc2s1`, the TGI in [1] was found to be 54.6 µM; in [2], 37 µM; in assay [3], 37.7 µM; in assay [4], 27 µM; in assay [5], 38.8 µM; in assay [6] it was 40 µM. Also, the TGI in assay [7] was 33.5 µM; in assay [8], 77.2 µM; in [9], 39.6 µM; in [10], 66.7 µM.

As for `CCOC(=O)c1cn2c(n1)sc1cc(Cl)cc(Cl)c12`, the TGI in assay [1], in assay [2], in assay [3], in [4], in assay [5] and in assay [6] was greater than 100 µM each time. The TGI in [7], in assay [8], in [9] and in assay [10] was greater than 100 µM each time.

On to `N#Cc1nc(C2CCC2)oc1N`, for which the TGI in [1], in [2], in [3], in assay [4], in assay [5] and in [6] was greater than 100 µM in each case. The TGI in [7], in assay [8], in assay [9] and in [10] was greater than 100 µM each time.

With `COc1ccc(-c2cc(-c3ccccc3)[nH]c(=S)c2C#N)cc1`, the TGI in assay [1] is greater than 100 µM; in assay [2] it was 38.3 µM; in assay [3] it was 46.2 µM; in [4], greater than 100 µM; in [5], 52.3 µM; in assay [6], greater than 100 µM. In addition, the TGI was greater than 100 µM in [7], 51.7 µM in assay [8], 24.2 µM in [9] and 93.6 µM in assay [10].

As to `Cc1ccc(C2=CC(=O)/C(=C\C(=O)c3ccc(Cl)cc3)O2)cc1`, the TGI in assay [1] worked out at 33.5 µM; in assay [2], 18.4 µM; in assay [3], 23.8 µM; in assay [4], 4.99 µM; in [5], 55.3 µM; in assay [6], 17.3 µM. Further, the TGI was 6.95 µM in [7], 6.31 µM in [8], greater than 100 µM in assay [9] and 56.7 µM in assay [10].

On to `CC(=O)OC1C(COC(=O)c2ccccc2)OC(Nc2ncc(-c3ccc(Br)cc3)s2)C(OC(=O)c2ccccc2)C1OC(=O)c1ccccc1` (stereo not drawn), for which the TGI in assay [1], in assay [2], in assay [3], in assay [4], in assay [5] and in assay [6] was greater than 100 µM each time. Also, the TGI in assay [7], in [8], in assay [9] and in assay [10] was greater than 100 µM throughout.

For `COC(=O)C1=Nc2c(C)nn(-c3ccccc3)c2N=C(c2ccccc2)C1`, the TGI in assay [1], in [2], in [3], in [4], in assay [5] and in assay [6] was greater than 10 µM in each case. Also, the TGI in [7], in [8], in assay [9] and in [10] was greater than 10 µM in each case.

As to `COc1cc2c(c(O)c1OC)C(=O)C(Cc1ccc(O)cc1)CO2` (stereo not drawn), the TGI in assay [1] was greater than 100 µM; in [2] it was 26.4 µM; in assay [3], greater than 100 µM; in [4], 15.3 µM; in assay [5], greater than 100 µM; in assay [6], greater than 100 µM. Besides, the TGI in assay [7] was greater than 100 µM; in assay [8] it was 60.3 µM; in assay [9] it was greater than 100 µM; in [10], 61.3 µM.

For the molecule `CC1(C)[C@H]2CC[C@@]13C(=O)N1C(=O)O[C@@H]([C@H]1Cl)C(Cl)(COCc1ccccc1)C(=O)OCCO[C@H]3C2` (stereo partly drawn), the TGI in assay [1], in assay [2], in assay [3], in assay [4], in assay [5] and in assay [6] was greater than 100 µM throughout. In addition, the TGI in assay [7], in assay [8], in assay [9] and in assay [10] was greater than 100 µM throughout.

For `O=[N+]([O-])c1ccc2c(c1)C1=NN(c3ccccc3)C(c3ccccc3Br)C1CCC2` (stereo not drawn), the TGI is greater than 50 µM in assay [1]; greater than 50 µM in [2]; 34.4 µM in assay [3]; greater than 50 µM in assay [4]; greater than 50 µM in assay [5]; greater than 50 µM in assay [6]. Moreover, the TGI in assay [7] was greater than 50 µM; in [8] it was 48.4 µM; in assay [9] it was greater than 50 µM; in assay [10], greater than 50 µM.

As to `COc1cc2c(cc1Cc1c(F)cccc1Cl)nc(-c1c(F)cccc1Cl)n2Cc1c(F)cccc1Cl`, the TGI is greater than 100 µM in assay [1]; greater than 100 µM in assay [2]; greater than 100 µM in assay [3]; 59 µM in [4]; greater than 100 µM in assay [5]; greater than 100 µM in assay [6]. Further, the TGI in assay [8] is greater than 100 µM; in [9] it was 75.7 µM; in assay [10], 70 µM.

Values taken from PubChem BioAssay (NCI).
